Test results reported in ChEMBL document CHEMBL2007661, “Compounds: GSK PKIS; Assays: UNC Frye lab” (2012).
Several values for one entry are separate records, joined by “and”; a condition that tells them apart may be missing. Equal entries are not always repeated.

Columns and labels:
[1] = target: T1, Inhibitor of nuclear factor kappa-B kinase subunit epsilon (Homo sapiens) (UniProt Q14164); conditions: at 1 µM
T1 sequence (whole entry): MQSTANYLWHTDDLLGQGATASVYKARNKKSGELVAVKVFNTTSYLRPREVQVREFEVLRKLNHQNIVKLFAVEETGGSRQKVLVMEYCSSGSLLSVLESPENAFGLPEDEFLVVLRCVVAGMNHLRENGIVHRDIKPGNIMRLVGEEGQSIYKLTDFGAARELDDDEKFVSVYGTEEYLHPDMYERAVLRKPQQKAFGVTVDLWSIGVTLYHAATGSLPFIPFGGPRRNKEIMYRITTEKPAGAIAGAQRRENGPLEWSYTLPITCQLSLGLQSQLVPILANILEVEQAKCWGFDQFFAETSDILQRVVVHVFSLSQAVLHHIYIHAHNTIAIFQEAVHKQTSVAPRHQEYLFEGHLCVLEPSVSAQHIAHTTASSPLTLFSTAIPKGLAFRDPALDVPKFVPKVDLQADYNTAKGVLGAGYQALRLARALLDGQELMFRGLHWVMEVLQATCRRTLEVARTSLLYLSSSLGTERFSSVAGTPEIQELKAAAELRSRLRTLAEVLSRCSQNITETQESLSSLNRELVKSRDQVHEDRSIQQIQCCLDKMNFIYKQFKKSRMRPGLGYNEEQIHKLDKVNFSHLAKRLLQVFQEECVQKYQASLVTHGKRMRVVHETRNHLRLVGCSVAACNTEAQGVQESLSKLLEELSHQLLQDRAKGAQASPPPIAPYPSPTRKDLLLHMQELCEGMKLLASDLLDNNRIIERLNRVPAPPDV

[2] = target: T2, Inhibitor of nuclear factor kappa-B kinase subunit alpha (Homo sapiens) (UniProt O15111); conditions: at 1 µM
T2 sequence (whole entry): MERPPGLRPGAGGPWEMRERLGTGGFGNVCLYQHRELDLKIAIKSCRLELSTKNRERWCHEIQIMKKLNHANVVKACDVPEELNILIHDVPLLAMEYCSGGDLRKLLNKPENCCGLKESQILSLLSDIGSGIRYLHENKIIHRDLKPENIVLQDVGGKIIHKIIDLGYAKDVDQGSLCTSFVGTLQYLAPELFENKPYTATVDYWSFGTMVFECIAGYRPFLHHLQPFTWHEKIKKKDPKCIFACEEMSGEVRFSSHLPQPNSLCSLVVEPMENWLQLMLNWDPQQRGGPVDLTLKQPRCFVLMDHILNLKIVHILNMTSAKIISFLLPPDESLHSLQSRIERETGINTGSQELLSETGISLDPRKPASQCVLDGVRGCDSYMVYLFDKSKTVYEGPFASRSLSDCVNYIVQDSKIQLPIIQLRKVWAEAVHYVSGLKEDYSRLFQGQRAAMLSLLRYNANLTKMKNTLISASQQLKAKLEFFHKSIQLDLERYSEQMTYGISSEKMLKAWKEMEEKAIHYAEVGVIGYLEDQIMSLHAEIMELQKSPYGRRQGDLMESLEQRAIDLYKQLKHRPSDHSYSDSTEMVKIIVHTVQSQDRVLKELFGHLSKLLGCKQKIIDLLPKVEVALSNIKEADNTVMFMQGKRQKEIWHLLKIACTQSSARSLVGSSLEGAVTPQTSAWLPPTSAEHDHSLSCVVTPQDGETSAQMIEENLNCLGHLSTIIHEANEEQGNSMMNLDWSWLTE

| SMILES | inhibition [1] | inhibition [2] |
| --- | --- | --- |
| Nc1ncc(-c2cccc(S(N)(=O)=O)c2)c2scc(-c3ccc(F)c(Cl)c3)c12 | 1% and 2% | -2% |
| COc1cccc(/C=N/Nc2ncnc3c2cnn3-c2cccc(OC)c2)c1 | -1% and 1% | 2% and 21% |
| COc1ccc(-c2ccncc2)cc1C(N)=O | 1% and 3% | -5% and -4% |
| NC(=O)Cc1ccccc1Oc1nccc(-c2c(-c3ccc(F)cc3)ncn2C2CCNCC2)n1 | 0% and -1% | 2% and 3% |
| FC(F)(F)c1cccc(Nc2nccc(-c3cnn4nc(-c5ccccc5)ccc34)n2)c1 | 7% and 5% | -5% and -4% |
| Fc1cccc(COc2ccc(Nc3ncnc4sc(-c5ccco5)cc34)cc2Cl)c1 | 0% and 2% | 14% and 0% |
| COc1cc2c(cc1Nc1nc(Nc3ccsc3C(N)=O)c3cc[nH]c3n1)N(C(=O)CN(C)C)CCC2(C)C | 39% and 44% | 1% and 2% |
| Cc1cc(O)cc(C)c1/C=C/c1cncc(C(=O)OC(C)(C)C)c1 | -2% and 0% | -1% and 0% |
| CCCN1CCC(Oc2cc(Nc3nc(Nc4cccc(F)c4C(N)=O)c4cc[nH]c4n3)c(OC)cc2Cl)CC1 | 0% and -2% | -1% and 2% |
| COc1cc(Nc2nccc(-c3cnn4ncccc34)n2)cc(OC)c1 | 38% | -4% and -2% |
| NC(=O)c1cccc(Nc2nccc(Nc3cccc(F)c3)n2)c1 | 13% and 12% | 4% and 2% |
| CNC(=O)c1cccc(C#Cc2cncnc2Nc2ccc(OCc3cccc(F)c3)c(Cl)c2)c1 | 7% and 1% | -1% and 17% |
| CCn1c(-c2nonc2N)nc2cncc(C(=O)N3CCNCC3)c21 | -2% and 0% | 2% and 0% |
| COc1c(C(N)=O)cc(-c2ccc(Cl)cc2)cc1-c1ccc(S(N)(=O)=O)cc1 | -1% and 0% | 0% and -2% |
| COc1ccc(-c2coc3ncnc(N)c23)cc1 | -4% | 0% and 1% |
| COc1ccc(-c2nn3ncccc3c2-c2ccnc(Nc3cccc(C(F)(F)F)c3)n2)cc1 | -1% and 0% | 2% |
| O=C(Nc1n[nH]c2cc(-c3cc(F)ccc3F)ccc12)C1CC1 | -3% | 2% |
| CN1CCC(n2cnc(-c3ccc(F)cc3)c2-c2ccnc(NCCO)n2)CC1 | -3% | 0% and 1% |
| CCOc1ccc2c(-c3ccnc(Nc4cc(OC)cc(C(F)(F)F)c4)n3)cnn2n1 | 32% and 31% | 4% and -1% |

| SMILES | inhibition [1] | inhibition [2] |
| --- | --- | --- |
| [O-][S+]1CCN(Cc2ccc(-c3ccc4ncnc(Nc5ccc(OCc6ccccc6)c(Cl)c5)c4c3)o2)CC1 | -3% | 0% and -1% |
| N#Cc1cccc(Nc2ncc(-c3ccccc3)o2)c1 | 1% and -3% | 1% and -1% |
| COc1cc(Nc2ncc3c(C)nc(-c4cccc(Oc5ccccc5)c4)n3n2)cc(OC)c1OC | 59% | 1% and 2% |
| COc1ccc(-c2nn3ncccc3c2-c2ccnc(Nc3ccc(F)c(F)c3)n2)cc1 | -4% and -3% | 8% and 4% |
| COc1cc2ncnc(Nc3ccc(C)c(O)c3)c2cc1OC | -1% and -2% | 0% and 1% |
| CCc1nccc2c1nc(-c1nonc1N)n2CC | -3% and 0% | 12% and 13% |
| CS(=O)(=O)CCNCc1ccc(-c2ccc3ncnc(Nc4ccc(OCc5cccc(F)c5)c(C(F)(F)F)c4)c3c2)o1 | 1% and 4% | -3% and -2% |
| COC(=O)c1cncc(/C=C/c2c(C)cc(O)cc2C)c1 | 0% and 1% | 3% and 2% |
| CCn1c(-c2nonc2N)nc2ccc(F)cc21 | -1% | 2% |
| Cc1ccc2c(c1)/C(=N/Nc1ccc(S(N)(=O)=O)cc1)C(=O)N2 | -1% and 1% | 9% and -3% |
| NS(=O)(=O)c1ccc(N/N=C2\C(=O)Nc3ccc(C(=O)NCCc4c[nH]cn4)cc32)cc1 | 17% and 15% | 7% and 3% |
| COc1cc2ncn(-c3cc(O[C@@H](C)c4ccccc4Cl)c(C(N)=O)s3)c2cc1OC | 6% and 8% | 0% and 1% |
| CS(=O)(=O)CCNCc1ccc(-c2ccc3ncnc(Nc4ccc(OCc5ccccc5)c(Br)c4)c3c2)o1 | -2% and -1% | 3% and 2% |
| Nc1nc(-c2cccc(Cl)c2)c(-c2ccc3ncccc3n2)s1 | 1% | 3% and -7% |
| Clc1ccc(CNc2nccc(-c3cnn4ncccc34)n2)cc1 | 0% | -1% |
| Nc1nccc(-c2c(-c3ccc(F)cc3)ncn2CCCN2CCOCC2)n1 | 1% and 3% | 6% and 5% |
| COc1cc(N2CCN(C(C)C)CC2)ccc1Nc1nc(Nc2ccc(F)cc2C(N)=O)c2cc[nH]c2n1 | 6% and 4% | 3% |
| Nc1nonc1-c1nc2cnccc2n1C1CCCCC1 | 25% | 39% and 36% |
| CCS(=O)(=O)c1ccc(OC)c(Nc2ncc(-c3cccc(-c4ccccc4F)c3)o2)c1 | 10% and 5% | -3% and 14% |

The next lines start with the values.

| inhibition [1] | inhibition [2] | SMILES |
| --- | --- | --- |
| -2% and 0% | 0% and -1% | c1ccc(-c2n[nH]cc2-c2ccnc(-c3ccc(OCCn4ccnc4)cc3)c2)nc1 |
| 1% and 3% | 6% and 4% | Cc1ccc2c(-c3ccnc(Nc4cccc(C(F)(F)F)c4)n3)c(-c3ccccc3)nn2n1 |
| 1% and -1% | -1% and 0% | CS(=O)(=O)CCNCc1ccc(-c2ccc3ncnc(Nc4ccc(OCc5cccc(C(F)(F)F)c5)cc4)c3c2)o1 |
| -4% and -3% | 0% and 2% | N#Cc1c(NC(=O)c2ccc(F)cc2)sc2c1CCCC2 |
| -3% and -2% | 2% and 4% | CNC(=O)c1sc(-n2cnc3cc(OC)c(OC)cc32)cc1OCc1ccccc1C(F)(F)F |
| -1% and -3% | 4% and 3% | CCN1CCC(C(=O)Nc2n[nH]c3nnc(-c4cccc(F)c4F)cc23)CC1 |
| 0% and -2% | 0% and -2% | Cc1ccc(C(=O)NC(C)C)cc1-c1ccc(C(=O)NCC2CC2)cc1 |
| -3% and -1% | 3% and 2% | c1ccc(COc2ccc(Nc3ncnc4ccc(-c5ccco5)cc34)cc2)cc1 |
| 1% and -1% | 4% | COc1cc(C=NNc2ncnc3c2cnn3Cc2ccccc2)ccc1O |
| -2% and -1% | 0% | O=S(=O)(CCOCc1ccc(-c2ccc3ncnc(Nc4ccc(OCc5cccc(F)c5)c(Cl)c4)c3c2)o1)c1ccccc1 |
| -1% and 0% | 1% and 2% | NS(=O)(=O)c1cccc(-c2ccc3c(NC(=O)C4CC4)n[nH]c3c2)c1 |
| 13% and 11% | -1% and 0% | COC(=O)c1sc(-n2cnc3cc(OC)c(OC)cc32)cc1OCc1ccccc1C(F)(F)F |
| -1% and 0% | 4% and 5% | CC1=C(C(=O)Nc2ccc3[nH]nc(C)c3c2)C(c2ccc(C(F)(F)F)cc2)CC(=O)N1 (stereo unspecified) |
| -1% and 0% | 1% and 2% | COc1ccc(-c2ccc3c(NC(=O)C4CC4)n[nH]c3n2)cc1 |
| -1% and -2% | 4% | Cc1ccc(C(=O)NC2CCC2)cc1-c1ccc(C(=O)NCC2CC2)cc1 |
| -2% | -2% and 0% | Fc1cccc(COc2ccc(Nc3ncnc4sc(-c5cccs5)cc34)cc2Cl)c1 |
| 5% | 0% and -3% | NS(=O)(=O)c1cccc(Nc2cc(-c3ccc(F)cc3)n[nH]2)c1 |
| 10% | 0% and 4% | COc1ccccc1-c1cc(/C=C2\C(=O)Nc3ncc(Br)cc32)cc(Br)c1O |
| -1% and -2% | 11% and -1% | Fc1ccc(-c2nc3n(c2-c2ccncc2)CCS3)cc1 |
| 8% and 7% | -1% | COc1cc2ncn(-c3cc(OCc4ccccc4Cl)c(C(N)=O)s3)c2cc1OC |
| 2% and 3% | 27% and 23% | Cn1c(-c2nonc2N)nc2cnccc21 |
| -2% and -3% | 2% and -1% | N#Cc1c(NC(=O)c2cccc3ccccc23)sc2c1CCCC2 |
| -2% and -3% | 2% and 1% | CCc1cccc(CC)c1/C=C/c1cncc(C(=O)NC)c1 |
| 0% and 1% | 4% and 10% | Nc1nccc(-c2c(-c3ccc(F)cc3)ncn2C2CCC(O)CC2)n1 (stereo unspecified) |
| 2% and -1% | 0% and -1% | NC(=O)c1sc(-n2cnc3ccccc32)cc1OCc1ccccc1Br |
